Source: ChEMBL document CHEMBL1127134, “Synthesis and antibacterial activity of (1R,5R,6R)-2-tert-butyl-6-(1-hydroxyethyl)oxapenem-3-carboxylic acid” (1993)

How the values were obtained:
Type in all cases: functional
Streptococcus pneumoniae = experiment: Minimum inhibitory concentration required for the antibacterial activity against Streptococcus pneumoniae 4959
Bacteroides fragilis [1] = experiment: Minimum inhibitory concentration required for the antibacterial activity against Bacillus fragilis DSM 2151
Phocaeicola vulgatus = experiment: Minimum inhibitory concentration required for the antibacterial activity against Bacillus valgatus Kr III
[2] = test system: Parabacteroides distasonis; experiment: Minimum inhibitory concentration required for the antibacterial activity against Bacillus distasonis Heidelberg
Clostridium septicum = experiment: Minimum inhibitory concentration required for the antibacterial activity against Clostridium septicum
Anaerococcus prevotii = experiment: Minimum inhibitory concentration required for the antibacterial activity against Peptococcus prevotii DSM 20548
[3] = test system: Bacteroides thetaiotaomicron; experiment: Minimum inhibitory concentration required for the antibacterial activity against Bacillus thetaiotaomicron DSM 2079
Klebsiella = experiment: Minimum inhibitory concentration required for the antibacterial activity against Klebsiella 6097
Staphylococcus aureus [4] = experiment: Minimum inhibitory concentration required for the antibacterial activity against Staphylococcus aureus 13N Munchen
Staphylococcus aureus [5] = experiment: Minimum inhibitory concentration required for the antibacterial activity against Staphylococcus aureus 25697
Staphylococcus aureus [6] = experiment: Minimum inhibitory concentration required for the antibacterial activity against Staphylococcus aureus 4978 Israel
Proteus mirabilis = experiment: Minimum inhibitory concentration required for the antibacterial activity against Proteus mirabilis 1235
Bacteroides fragilis [7] = experiment: Minimum inhibitory concentration required for the antibacterial activity against Bacillus fragilis GA I - 0558 Japan
Escherichia coli [8] = experiment: Minimum inhibitory concentration required for the antibacterial activity against Escherichia coli C165
[9] = test system: Peptoniphilus asaccharolyticus; experiment: Minimum inhibitory concentration required for the antibacterial activity against Peptococcus asacchar. DSM 20463
Staphylococcus aureus [10] = experiment: Minimum inhibitory concentration required for the antibacterial activity against Staphylococcus aureus 48N Munchen
Escherichia coli [11] = experiment: Minimum inhibitory concentration required for the antibacterial activity against Escherichia coli F14
Clostridium perfringens = experiment: Minimum inhibitory concentration required for the antibacterial activity against Clostridium perfringens 1024027
[12] = test system: Parabacteroides distasonis; experiment: Minimum inhibitory concentration required for the antibacterial activity against Bacillus distasonis Kr
Escherichia coli [13] = experiment: Minimum inhibitory concentration required for the antibacterial activity against Escherichia coli Neumann
Staphylococcus aureus [14] = experiment: Minimum inhibitory concentration required for the antibacterial activity against Staphylococcus aureus 1756
Bacteroides fragilis [15] = experiment: Minimum inhibitory concentration required for the antibacterial activity against Bacillus fragilis Kr II

Structure (SMILES): C[C@@H](O)[C@H]1C(=O)N2C(C(=O)[O-])=C(C(C)(C)C)O[C@H]12.[K+]
- MIC (Streptococcus pneumoniae): 0.25 µg/mL
- MIC (Bacteroides fragilis [1]): 1 µg/mL
- MIC (Phocaeicola vulgatus): 1 µg/mL
- MIC [2]: 8 µg/mL
- MIC (Clostridium septicum): 2 µg/mL
- MIC (Anaerococcus prevotii): 2 µg/mL
- MIC [3]: 1 µg/mL
- MIC (Klebsiella): 16 µg/mL
- MIC (Staphylococcus aureus [4]): 1.56 µg/mL
- MIC (Staphylococcus aureus [5]): 1.56 µg/mL
- MIC (Staphylococcus aureus [6]): ≤ 0.78 µg/mL
- MIC (Proteus mirabilis): 4 µg/mL
- MIC (Bacteroides fragilis [7]): 2 µg/mL
- MIC (Escherichia coli [8]): 8 µg/mL
- MIC [9]: 0.5 µg/mL
- MIC (Staphylococcus aureus [10]): ≤ 0.78 µg/mL
- MIC (Escherichia coli [11]): 16 µg/mL
- MIC (Clostridium perfringens): 1 µg/mL
- MIC [12]: 1 µg/mL
- MIC (Escherichia coli [13]): 2 µg/mL
- MIC (Staphylococcus aureus [14]): 2 µg/mL
- MIC (Staphylococcus aureus [14]; Staphylococcus aureus, read-out: MIC): 1.56 µg/mL
- MIC (Bacteroides fragilis [15]): 2 µg/mL
